Assay: xn = mol fraction of the nth substance listed
Details: Liquid, Vibrating tube method

CCCCCCCCCC [decane] + CCCCCC
Details | mass density [kg/m3]
332.93 K, 7000 kPa, x2 = 0.8991 | 643.52
332.93 K, 8000 kPa, x2 = 0.8991 | 644.74
332.93 K, 9000 kPa, x2 = 0.8991 | 645.94
332.93 K, 10000 kPa, x2 = 0.8991 | 647.14
332.93 K, 11000 kPa, x2 = 0.8991 | 648.32
332.93 K, 12000 kPa, x2 = 0.8991 | 649.47
332.93 K, 13000 kPa, x2 = 0.8991 | 650.61
332.93 K, 14000 kPa, x2 = 0.8991 | 651.73
332.93 K, 15000 kPa, x2 = 0.8991 | 652.84
332.93 K, 16000 kPa, x2 = 0.8991 | 653.92
332.93 K, 17000 kPa, x2 = 0.8991 | 654.97
332.93 K, 18000 kPa, x2 = 0.8991 | 655.99
332.93 K, 19000 kPa, x2 = 0.8991 | 657.01
332.93 K, 20000 kPa, x2 = 0.8991 | 657.98
332.93 K, 21000 kPa, x2 = 0.8991 | 658.93
332.93 K, 22000 kPa, x2 = 0.8991 | 659.86
332.93 K, 23000 kPa, x2 = 0.8991 | 660.76
332.93 K, 24000 kPa, x2 = 0.8991 | 661.64
332.93 K, 25000 kPa, x2 = 0.8991 | 662.49
333.08 K, 1000 kPa, x2 = 0.2185 | 689.16
333.08 K, 2000 kPa, x2 = 0.2185 | 690.17
333.08 K, 3000 kPa, x2 = 0.2185 | 691.16
333.08 K, 4000 kPa, x2 = 0.2185 | 692.16
333.08 K, 5000 kPa, x2 = 0.2185 | 693.16
333.08 K, 6000 kPa, x2 = 0.2185 | 694.13
333.08 K, 7000 kPa, x2 = 0.2185 | 695.1
333.08 K, 8000 kPa, x2 = 0.2185 | 696.06
333.08 K, 9000 kPa, x2 = 0.2185 | 697.02
333.08 K, 10000 kPa, x2 = 0.2185 | 697.94
333.08 K, 10990 kPa, x2 = 0.2185 | 698.86
333.08 K, 12000 kPa, x2 = 0.2185 | 699.77
333.08 K, 13000 kPa, x2 = 0.2185 | 700.66
333.08 K, 14000 kPa, x2 = 0.2185 | 701.54
333.08 K, 15000 kPa, x2 = 0.2185 | 702.39
333.08 K, 16000 kPa, x2 = 0.2185 | 703.25
333.08 K, 17000 kPa, x2 = 0.2185 | 704.09
333.08 K, 18000 kPa, x2 = 0.2185 | 704.93
333.08 K, 19000 kPa, x2 = 0.2185 | 705.76
333.08 K, 20000 kPa, x2 = 0.2185 | 706.56
333.08 K, 21000 kPa, x2 = 0.2185 | 707.37
333.08 K, 22000 kPa, x2 = 0.2185 | 708.17
333.08 K, 23000 kPa, x2 = 0.2185 | 708.95
333.08 K, 24000 kPa, x2 = 0.2185 | 709.72
333.08 K, 25000 kPa, x2 = 0.2185 | 710.48
333.1 K, 1000 kPa, x2 = 0.7524 | 650.65
333.1 K, 2000 kPa, x2 = 0.7524 | 651.99
333.1 K, 3000 kPa, x2 = 0.7524 | 653.29
333.1 K, 4000 kPa, x2 = 0.7524 | 654.52
333.1 K, 5000 kPa, x2 = 0.7524 | 655.72
333.1 K, 6000 kPa, x2 = 0.7524 | 656.92
333.1 K, 7000 kPa, x2 = 0.7524 | 658.07
333.1 K, 8000 kPa, x2 = 0.7524 | 659.21
333.1 K, 9000 kPa, x2 = 0.7524 | 660.35
333.1 K, 10000 kPa, x2 = 0.7524 | 661.46
333.1 K, 10990 kPa, x2 = 0.7524 | 662.52
333.1 K, 12000 kPa, x2 = 0.7524 | 663.6
333.1 K, 13000 kPa, x2 = 0.7524 | 664.65
333.1 K, 14000 kPa, x2 = 0.7524 | 665.67
333.1 K, 15000 kPa, x2 = 0.7524 | 666.7
333.1 K, 16000 kPa, x2 = 0.7524 | 667.68
333.1 K, 17000 kPa, x2 = 0.7524 | 668.66
333.1 K, 18000 kPa, x2 = 0.7524 | 669.62
333.1 K, 19000 kPa, x2 = 0.7524 | 670.59
333.1 K, 20000 kPa, x2 = 0.7524 | 671.52
333.1 K, 21000 kPa, x2 = 0.7524 | 672.45
333.1 K, 22000 kPa, x2 = 0.7524 | 673.35
333.1 K, 23000 kPa, x2 = 0.7524 | 674.23
333.1 K, 24000 kPa, x2 = 0.7524 | 675.08
333.1 K, 25000 kPa, x2 = 0.7524 | 675.91
333.12 K, 1000 kPa, x2 = 0.0456 | 697.88
333.12 K, 2000 kPa, x2 = 0.0456 | 698.9
333.12 K, 3000 kPa, x2 = 0.0456 | 699.91
333.12 K, 4000 kPa, x2 = 0.0456 | 700.9
333.12 K, 5000 kPa, x2 = 0.0456 | 701.88
333.12 K, 6000 kPa, x2 = 0.0456 | 702.84
333.12 K, 7000 kPa, x2 = 0.0456 | 703.78
333.12 K, 8000 kPa, x2 = 0.0456 | 704.71
333.12 K, 9000 kPa, x2 = 0.0456 | 705.63
333.12 K, 10000 kPa, x2 = 0.0456 | 706.54
333.12 K, 10990 kPa, x2 = 0.0456 | 707.42
333.12 K, 12000 kPa, x2 = 0.0456 | 708.3
333.12 K, 13000 kPa, x2 = 0.0456 | 709.16
333.12 K, 14000 kPa, x2 = 0.0456 | 710.01
333.12 K, 15000 kPa, x2 = 0.0456 | 710.86
333.12 K, 16000 kPa, x2 = 0.0456 | 711.67
333.12 K, 17000 kPa, x2 = 0.0456 | 712.48
333.12 K, 18000 kPa, x2 = 0.0456 | 713.29
333.12 K, 19000 kPa, x2 = 0.0456 | 714.08
333.12 K, 20000 kPa, x2 = 0.0456 | 714.87
333.12 K, 21000 kPa, x2 = 0.0456 | 715.64
333.12 K, 22000 kPa, x2 = 0.0456 | 716.39
333.12 K, 23000 kPa, x2 = 0.0456 | 717.15
333.12 K, 24000 kPa, x2 = 0.0456 | 717.89
333.12 K, 25000 kPa, x2 = 0.0456 | 718.63

From the NIST ThermoML archive (doi:10.1021/je200721d)
